The text below walks through data of ChEMBL document CHEMBL1201862, “PubChem BioAssay data set” (2004).

Usually EC50 stands for the concentration at which the effect is half-maximal. In general, IC50 refers to the point on the concentration scale where inhibition reaches its midpoint.

The structures appear in SMILES notation. Active and inactive are the calls of the source. Cut-off read from the data, not from the text of the source, for most assays here: actives have a measured IC50 and inactives only a lower limit. Where only a bound is given, the exact number is not on record here.

Format in all cases: functional
One assay has as its target T1, Protein RecA (Mycobacterium tuberculosis, UniProt P9WHJ3).
T1 sequence (P9WHJ3 whole entry): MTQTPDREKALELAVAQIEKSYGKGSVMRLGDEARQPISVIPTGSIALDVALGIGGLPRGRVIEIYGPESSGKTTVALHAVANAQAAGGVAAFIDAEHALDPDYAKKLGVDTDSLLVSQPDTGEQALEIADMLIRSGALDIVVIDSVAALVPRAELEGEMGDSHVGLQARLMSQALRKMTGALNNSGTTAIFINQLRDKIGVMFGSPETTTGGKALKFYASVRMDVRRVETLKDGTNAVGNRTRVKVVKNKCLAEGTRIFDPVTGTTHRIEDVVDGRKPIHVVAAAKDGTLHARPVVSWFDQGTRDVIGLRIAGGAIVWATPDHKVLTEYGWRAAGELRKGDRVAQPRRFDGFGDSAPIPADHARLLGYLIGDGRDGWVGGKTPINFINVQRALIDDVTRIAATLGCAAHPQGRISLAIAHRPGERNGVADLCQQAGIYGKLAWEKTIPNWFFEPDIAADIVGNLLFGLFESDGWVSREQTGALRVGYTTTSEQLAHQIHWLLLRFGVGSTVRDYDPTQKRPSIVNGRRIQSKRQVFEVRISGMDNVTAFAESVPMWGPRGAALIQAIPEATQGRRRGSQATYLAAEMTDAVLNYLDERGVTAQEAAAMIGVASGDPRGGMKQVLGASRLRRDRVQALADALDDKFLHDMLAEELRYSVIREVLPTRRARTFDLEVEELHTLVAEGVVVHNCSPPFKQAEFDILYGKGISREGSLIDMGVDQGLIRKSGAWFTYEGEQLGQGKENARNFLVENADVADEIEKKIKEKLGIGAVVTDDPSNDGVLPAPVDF
Description: Fluorescence Cell-Free Homogeneous Dose Retest to Identify Inhibitors of RecA-Intein Splicing Activity. [Related pubchem assays (depositor defined):AID2097, AID2223, AID489010, AID492950].

In assay [1] the target is T2, Sentrin-specific protease 7 (Homo sapiens, UniProt Q9BQF6).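 Note: Luminescence-based dose-response confirmation of ultra-high-throughput screening hits, measuring inhibition of SENP7.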
T2 sequence (Q9BQF6 whole entry): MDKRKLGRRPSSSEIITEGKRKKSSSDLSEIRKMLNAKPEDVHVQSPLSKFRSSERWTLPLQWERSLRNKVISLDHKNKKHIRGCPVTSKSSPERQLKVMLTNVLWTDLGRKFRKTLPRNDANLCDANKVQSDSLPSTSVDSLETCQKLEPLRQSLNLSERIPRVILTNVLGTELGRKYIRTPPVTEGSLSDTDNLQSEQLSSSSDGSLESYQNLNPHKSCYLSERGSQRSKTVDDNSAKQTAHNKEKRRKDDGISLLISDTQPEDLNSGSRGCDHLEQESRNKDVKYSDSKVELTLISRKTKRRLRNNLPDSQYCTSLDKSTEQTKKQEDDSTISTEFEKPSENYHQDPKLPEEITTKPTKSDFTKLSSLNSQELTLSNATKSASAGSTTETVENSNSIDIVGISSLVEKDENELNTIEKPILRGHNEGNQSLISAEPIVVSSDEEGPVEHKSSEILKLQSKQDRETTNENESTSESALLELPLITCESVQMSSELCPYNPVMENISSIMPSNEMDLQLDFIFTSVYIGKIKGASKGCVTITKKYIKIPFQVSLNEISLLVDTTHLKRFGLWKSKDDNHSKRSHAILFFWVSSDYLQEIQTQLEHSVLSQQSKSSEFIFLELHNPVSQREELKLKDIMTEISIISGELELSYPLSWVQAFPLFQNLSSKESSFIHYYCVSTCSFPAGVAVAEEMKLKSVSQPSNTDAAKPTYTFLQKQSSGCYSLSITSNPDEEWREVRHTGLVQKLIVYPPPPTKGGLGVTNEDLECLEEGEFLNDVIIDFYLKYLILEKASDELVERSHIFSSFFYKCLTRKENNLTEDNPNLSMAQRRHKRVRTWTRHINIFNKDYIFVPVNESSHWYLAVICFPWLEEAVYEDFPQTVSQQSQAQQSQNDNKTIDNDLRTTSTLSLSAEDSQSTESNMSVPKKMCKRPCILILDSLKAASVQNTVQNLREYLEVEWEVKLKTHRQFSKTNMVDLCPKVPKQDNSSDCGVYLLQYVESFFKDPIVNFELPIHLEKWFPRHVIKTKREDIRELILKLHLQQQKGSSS

Assay [2] has as its target T3, Sentrin-specific protease 6 (Homo sapiens, UniProt Q9GZR1).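 Note: Luminescence-based dose-response confirmatory assay of SENP6 inhibition, following up an ultra-high-throughput screen.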
T3 sequence (Q9GZR1 whole entry): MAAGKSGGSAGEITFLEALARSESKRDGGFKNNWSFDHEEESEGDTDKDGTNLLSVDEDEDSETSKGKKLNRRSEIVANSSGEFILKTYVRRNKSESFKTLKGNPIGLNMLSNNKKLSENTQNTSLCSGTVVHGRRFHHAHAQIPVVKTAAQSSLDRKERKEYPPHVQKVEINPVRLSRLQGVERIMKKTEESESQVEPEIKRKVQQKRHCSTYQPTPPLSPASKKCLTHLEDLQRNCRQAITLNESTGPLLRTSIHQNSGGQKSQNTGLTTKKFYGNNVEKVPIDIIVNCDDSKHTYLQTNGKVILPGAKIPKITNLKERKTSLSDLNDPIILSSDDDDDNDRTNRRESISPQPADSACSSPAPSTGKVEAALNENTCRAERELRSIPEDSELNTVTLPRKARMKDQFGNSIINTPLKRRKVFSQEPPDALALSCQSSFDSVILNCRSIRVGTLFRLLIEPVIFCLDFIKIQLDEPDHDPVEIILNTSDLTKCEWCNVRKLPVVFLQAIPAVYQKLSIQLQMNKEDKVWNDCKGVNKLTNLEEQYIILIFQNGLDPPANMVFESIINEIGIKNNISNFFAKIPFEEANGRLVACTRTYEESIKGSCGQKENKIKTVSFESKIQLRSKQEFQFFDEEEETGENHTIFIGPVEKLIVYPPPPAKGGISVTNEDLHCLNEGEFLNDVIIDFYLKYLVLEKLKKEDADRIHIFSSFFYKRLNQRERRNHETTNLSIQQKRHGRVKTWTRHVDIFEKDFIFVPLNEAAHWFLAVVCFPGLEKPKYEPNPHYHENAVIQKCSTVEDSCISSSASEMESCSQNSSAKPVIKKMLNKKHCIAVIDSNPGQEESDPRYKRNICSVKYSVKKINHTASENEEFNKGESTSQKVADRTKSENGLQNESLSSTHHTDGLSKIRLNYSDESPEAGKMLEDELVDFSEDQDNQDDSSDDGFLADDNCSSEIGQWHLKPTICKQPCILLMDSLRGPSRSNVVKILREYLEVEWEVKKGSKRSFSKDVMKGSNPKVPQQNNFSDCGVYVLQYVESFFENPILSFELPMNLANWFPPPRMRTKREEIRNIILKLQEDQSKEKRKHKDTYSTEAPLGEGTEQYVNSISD

Take `Cc1ccccc1NC1=C/C(=N\S(=O)(=O)c2ccc(C(=O)O)cc2)c2ccccc2C1=O`: the half-maximal effective concentration (EC50) on Protein RecA was 3.67 µM (active). As to `O=C(Nc1ccc(C#Cc2ccccc2)cc1)C1CC1`, the IC50 in assay [1] is 3.38 µM (active); in assay [2], > 100 µM (inactive). Turning to `Cc1ccc(NC2=C/C(=N/S(=O)(=O)c3cccs3)c3ccccc3C2=O)cc1`, the IC50 was 0.359 µM (active) in assay [1] and 0.186 µM (active) in assay [2]. On Protein RecA, the EC50 is 0.119 µM (active). For the molecule `COC(=O)C[C@]1(C(=O)OC)CN(C#N)N(c2ccc(Cl)cc2)C12c1ccccc1-c1ccccc12`, the concentration giving a half-maximal response (EC50) at Protein RecA was 1.77 µM (active). `COc1ccc(-c2cc(-c3ccc(C)cc3)[nH]n2)c(O)c1`: the IC50 in assay [1] is 6.63 µM (active); in assay [2] it was 19.7 µM (active). The corresponding values for `CCCCn1c(NC(=O)c2ccco2)c(C(=O)OCC)c2nc3ccccc3nc21` are 10.1 µM (active) and 3.25 µM (active).
